Laboratory results as given in patent US10555959B2, “Glycolipids as treatment for disease” (La Jolla Pharmaceutical Company, priority 2009, dated 2020).

Experiments:
SUR-1−/− Mice = settings: cited from earlier work
mouse cortical cells = experiment: Protection of cortical cells from apoptosis (hydrogen peroxide, MTT assay); format: cell-based; settings: approx. 0.1 μM; 50 μM hydrogen peroxide; cell death by MTT assay
Description: To induce apoptosis, mouse cortical cells were cultured and treated with 50 μM hydrogen peroxide for three hours prior to being treated with the ganglioside analogue.
The cells were also treated with the hydrogen peroxide during treatment with the ganglioside analogue and post-treatment for 48 h. Cell death was assayed using the MTT assay.

[1] = test system: C57B1/6 mice treated with MPTP; experiment: Animal model of Parkinson's and atypical Parkinson's disease (MPTP); format: in vivo, mouse; settings: daily administration for three weeks
Description: C57B1/6 mice 7-8 weeks of age can be treated with MPTP (b.i.d., 20 mg/kg, s.c.). The mice also receive a daily administration of saline, compound of formula (1), (2), (3), (4), (5), (6), (7), (8), (9) or (10) (1, 10 and 30 mg/kg, o.s.) or (0.3. to 3 mg/kg, i.p. or s.c.) for three weeks starting 24 h after the last MPTP injection. The brains are removed and analyzed for striatum and substantia nigra pars compacta dopamine levels. The midbrain is fixed for TH immunohistochemistry and dopamine neuron cell counts.

melanoma = settings: cited from earlier work
KATP channels = settings: in vitro; by activation of the KATP channels; ceramide fatty acid of C16:0; cited from earlier work
human adippose tissue = settings: human adipose tissue, in vitro; cited from earlier work

**Q.** Which “fasting blood glucose levels” value (SUR-1−/− Mice) does the source give for Exendin-(9-39) here?
**A.** Significantly Raises

**Q.** With Gal3GalNAc4(Neu5Ac3)Gal4GlcCer [GM1] as the substance, how does the “protection of the cells from apoptosis” value (mouse cortical cells) read?
**A.** approximately 20%

**Q.** And the striatal dopamine levels [1]?
**A.** increase striatal dopamine levels to approximately the same extent

**Q.** With “Gal3GalNAc4(Neu5Ac8Neu5Ac3)Gal4GlcCer [GD1b]” as the substance, how does the growth of melanoma (melanoma) read?
**A.** suppress

**Q.** Which growth of melanoma (melanoma) does the source give for “Neu5Ac3Gal3GalNAc4(Neu5Ac8Neu5Ac3)Gal4GlcCer [GT1b]” here?
**A.** suppress

**Q.** For “Neu5Ac8Neu5Ac3Gal3GalNAc4(Neu5Ac8Neu5c3)Gal4GlcCer [GQ1b]”, which growth of melanoma (melanoma) is on record?
**A.** suppress

**Q.** With sulfatide as the substance, how does the “glucose stimulation of insulin secretion” value (KATP channels) read?
**A.** inhibited

**Q.** And the expression of adiponectin (human adippose tissue)?
**A.** increased

**Q.** What about the “levels of IL-6” value (human adippose tissue) of the same substance?
**A.** decreasing

**Q.** And the “levels of IL-8” value (human adippose tissue)?
**A.** decreasing

**Q.** What about the “levels of TNF-alpha” value (human adippose tissue) of the same substance?
**A.** decreasing
